Results reported in article PMC9609004, “Computational Design, Synthesis, and Pharmacological Evaluation of Naproxen-Guaiacol Chimera for Gastro-Sparing Anti-Inflammatory Response by Selective COX2 Inhibition” (Molecules, 2022).
Several values for one entry are separate records, joined by “and”; a condition that tells them apart may be missing. Identical values can stand only once. Entries after “also recorded” stand apart in the source; their conditions may differ. Like-named read-outs stand apart in the source and are kept apart here. Blank lines part the entries; values can stand above or below the compound they belong to.

Assays:
COX2 = target: T1, COX2 (Homo sapiens, UniProt P35354); assay: Cyclooxygenase (COX2) inhibitory assay, ovine/human COX inhibitor assay kit; type: biochemical
T1 construct: purchased
T1 sequence (P35354 18-604): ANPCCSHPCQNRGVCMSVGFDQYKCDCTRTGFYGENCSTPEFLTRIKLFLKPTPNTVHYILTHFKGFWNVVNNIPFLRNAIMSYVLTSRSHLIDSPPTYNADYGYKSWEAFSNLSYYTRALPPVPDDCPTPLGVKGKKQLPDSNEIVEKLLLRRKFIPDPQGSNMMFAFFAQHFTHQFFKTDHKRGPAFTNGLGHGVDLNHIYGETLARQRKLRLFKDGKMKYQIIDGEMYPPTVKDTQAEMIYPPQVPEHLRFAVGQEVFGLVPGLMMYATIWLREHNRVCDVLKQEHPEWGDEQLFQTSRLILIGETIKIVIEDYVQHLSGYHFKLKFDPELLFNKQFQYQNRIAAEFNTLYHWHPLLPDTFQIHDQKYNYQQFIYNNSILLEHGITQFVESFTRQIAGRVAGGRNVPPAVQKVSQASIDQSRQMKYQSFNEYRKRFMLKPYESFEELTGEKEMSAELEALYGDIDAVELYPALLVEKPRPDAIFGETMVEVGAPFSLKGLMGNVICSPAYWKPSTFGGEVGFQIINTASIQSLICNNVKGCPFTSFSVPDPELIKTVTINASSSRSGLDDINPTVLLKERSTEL
Description: (§1) After that, 10 µL of arachidonic acid (100 µM), after 2 min of 1 M HCl of 50 µL and Ellman’s reagent, was added. The absorbance at 410 nm was measured spectrophotometrically against the blank. The selectivity index was calculated as follows:SI = IC50 COX1/IC50 COX2

human recombinant 5-LOX = target: T2, human recombinant 5-LOX (Homo sapiens, UniProt P09917); assay: 5-Lipoxygenase inhibitory assay (5-LOX assay kit); type: biochemical
T2 construct: purchased
T2 sequence (P09917 1-674): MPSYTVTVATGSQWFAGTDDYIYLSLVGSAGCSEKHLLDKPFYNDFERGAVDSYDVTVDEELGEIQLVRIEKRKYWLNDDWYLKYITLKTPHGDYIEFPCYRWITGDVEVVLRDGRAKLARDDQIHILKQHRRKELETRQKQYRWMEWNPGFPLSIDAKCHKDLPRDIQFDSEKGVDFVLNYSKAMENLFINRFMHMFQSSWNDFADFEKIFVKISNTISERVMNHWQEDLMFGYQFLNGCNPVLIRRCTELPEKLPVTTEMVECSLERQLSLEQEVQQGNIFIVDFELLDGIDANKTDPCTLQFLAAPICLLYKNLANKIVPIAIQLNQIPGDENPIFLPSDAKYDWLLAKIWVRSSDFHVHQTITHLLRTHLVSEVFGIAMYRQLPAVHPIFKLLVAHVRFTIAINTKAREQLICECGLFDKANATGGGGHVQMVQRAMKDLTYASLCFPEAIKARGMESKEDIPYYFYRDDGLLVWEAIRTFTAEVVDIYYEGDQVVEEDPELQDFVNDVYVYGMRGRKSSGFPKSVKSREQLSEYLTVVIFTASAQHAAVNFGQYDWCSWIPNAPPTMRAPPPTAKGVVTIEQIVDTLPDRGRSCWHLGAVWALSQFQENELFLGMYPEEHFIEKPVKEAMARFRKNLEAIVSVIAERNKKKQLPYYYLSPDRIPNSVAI
Description: The MAS 1696 was tested against human recombinant 5-LOX using a 5-LOX assay kit. Briefly, 5-LOX solution (90 µL) was added with various MAS-1696 concentrations. The arachidonic acid (10 µL) was further added and the absorbance was measured at 490 nm against the blank.

[1] = system: carrageenan-induced paw edema; assay: Rat paw edema test induced by carrageenan; type: in vivo, Wistar rats; conditions: carrageenan 1% w/v, 2 h and 4 h, S-naproxen 15 mg/kg p.o., 4-allyl guaiacol 15.46 mg/kg, n = 6
Description: In vivo studies were performed as per the guidelines issued by the WHO, Geneva. The protocol was approved by the IAEC for animal handling. The Wistar rats (male; 225–250 g) and ICR mice (20–25 g) were procured from the Animal House facility of Panjab University Chandigarh. The anti-inflammatory activity of MAS-1696 was determined by injecting carrageenan in rat paws as published by us previously. The different groups of rats with six animals in each group were administered the drug. The fresh solution of carrageenan (Type IV, 0.1 mL, 1%) was used to induce acute edema by injecting it under the plantar aspect of the left hind paw. One […] (0.9%) of saline was administered to the right paw (control group). A plethysmometer was used to measure the change in the paw volume between two and four hours after the carrageenan challenge.

stomach (gastric ulcers) = assay: Determination of ulcer index (gastric damage); type: in vivo, rats; conditions: S-naproxen 120 mg/kg p.o., equimolar doses of MAS-1696 or physical mixture; 4 h after treatment; n = 6
Description: The fasting rats were separated into four groups (n = 6). […] After 4 h of treatment, animals were sacrificed and the stomach was separated. This removed stomach was opened along the greater curvature and cleaned using saline to check for ulcers. The ulcers were graded as: 0—Normal texture stomach 0.5—Red coloration 1.0—Spot of ulcers 1.5—Hemorrhagic streaks 2.0—Ulcers up to 3 3.0—Ulcers above 3

COX1 = target: T3, COX1 (Ovis aries, UniProt P05979); assay: Cyclooxygenase (COX1) inhibitory assay, ovine/human COX inhibitor assay kit; type: biochemical; conditions: n = 3, mean ± SD
T3 construct: purchased
T3 sequence (P05979 25-600): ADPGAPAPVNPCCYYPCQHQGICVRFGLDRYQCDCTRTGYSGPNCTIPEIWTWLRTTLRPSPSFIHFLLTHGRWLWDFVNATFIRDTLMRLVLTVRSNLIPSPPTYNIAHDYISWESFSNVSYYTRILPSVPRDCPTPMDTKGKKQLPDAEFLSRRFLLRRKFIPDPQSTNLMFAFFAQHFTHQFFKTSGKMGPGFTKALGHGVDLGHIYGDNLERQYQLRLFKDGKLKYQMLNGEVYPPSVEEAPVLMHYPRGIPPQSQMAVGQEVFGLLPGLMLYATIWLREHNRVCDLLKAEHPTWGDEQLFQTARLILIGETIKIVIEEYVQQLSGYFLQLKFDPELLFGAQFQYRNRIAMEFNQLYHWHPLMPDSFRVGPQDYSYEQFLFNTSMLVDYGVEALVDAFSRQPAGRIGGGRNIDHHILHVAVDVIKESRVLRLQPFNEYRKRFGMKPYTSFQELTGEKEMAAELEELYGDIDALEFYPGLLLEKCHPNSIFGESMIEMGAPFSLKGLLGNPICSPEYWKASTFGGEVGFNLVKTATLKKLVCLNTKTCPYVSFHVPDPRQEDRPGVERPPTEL
Description: as §1

[2] = Partition/distribution coefficient (log P), shake flask method with HPLC; type: physicochemical; conditions: 1-octanol–0.05 M phosphate buffer pH 7.4, 25 °C, n = 2
Description: (§2) The chromatographic purity of the compound MAS-1696, partition coefficient, chemical stability, and metabolic stability were assessed using RP-HPLC. An isocratic elution system of acetonitrile-methanol-water-acetic acid (70:18:12:0.01) was used. An injection volume of 10 µL and flow rate of 1 mL/min with a relative standard deviation of 0.5% reproducibility was maintained.
The aqueous phase and 1-octanol were stirred overnight. The MAS-1696 in 1-octanol (2 mL) and phosphate buffer (5 mL) was stirred at 25 °C in a water bath shaker for 8 h. Both layers were separated and filtered through Millipore’s 0.22 µm nylon membrane filter. The 1-octanol layer was diluted appropriately before being injected into the HPLC. The log P was determined by using the following equation:log Poct/wat = log ([solute]octanol)/([solute]unionized water)

[3] = Aqueous solubility in buffer pH 7.4 (HPLC); type: physicochemical; conditions: aqueous buffer of pH 7.4, HPLC
[4] = In vitro stability in simulated gastric fluid (HCl buffer pH 2); type: physicochemical; conditions: for % MAS-1696 Left in the Simulated Gastric Fluid of pH 2: 37 °C
Description: as §2
The HCl buffer (pH 2) at 37 °C was used to evaluate the chemical stability of MAS-1696. To a 400 µL solution of MAS-1696 (10 mg/mL in chloroform), 3.6 mL of HCl buffer (pH 2) was added and kept on a shaker plate at 37 °C. Aliquots (400 µL) collected at different time points were mixed with 1600 µL of acetonitrile. After centrifugation, the supernatant was subjected to HPLC analysis. The remaining percentage of MAS-1696 was determined using the formula:% remaining = (peak area at the respective time (min)/peak area at 0 min) × 100

[5] = In vitro human plasma stability; type: in vitro ADME; conditions: for % MAS-1696 Left in Human Plasma: 37 °C
Description: as §2
To a 50 µL solution of MAS-1696 (10 mg/mL in chloroform), 900 µL of human plasma was added and kept on a shaker plate at 37 °C. Aliquots (100 µL) were collected at different intervals and mixed with 900 µL of acetonitrile for precipitation of proteins. After centrifugation, the supernatant was subjected to HPLC analysis. The remaining percentage of the conjugate was calculated using the formula:% remaining = (peak area at the respective time (min)/peak area at 0 min) × 100.

SMILES: COc1ccc2cc([C@H](C)C(=O)O)ccc2c1 [Naproxen, S-naproxen]
IC50 (COX2): 20.1 µM
IC50 (human recombinant 5-LOX): 36.5 µM
Anti-inflammatory effect (edema, paw volume) [1]: significant decrease in the edema and paw volume
Ulcer score / gastric damage (stomach (gastric ulcers)): substantial rise in ulcer score compared with the control

IC50 (COX1): 8.5 µM
Selectivity Index (COX2; SI = IC50 COX1/IC50 COX2): 1.1
IC50 (COX2; n = 3, mean ± SD, read-out: IC50 COX2 (converted)): 7.76 µM
Rise in selectivity for COX2 over COX1 (COX selectivity index) compared to naproxen (COX2; vs parent compound naproxen): 23%
IC50 (human recombinant 5-LOX; n = 3, mean ± SD, read-out: IC50 5-LOX (converted)): 28.5 µM
logP at 8 h [2]: 4.7 ± 0.26
Solubility (pH 7.4) [3]: BDL
% MAS-1696 Left in the Simulated Gastric Fluid of pH 2 ([4]; 0 h): 100%
% MAS-1696 Left in the Simulated Gastric Fluid of pH 2 ([4]; 2 h): 96.16%
% MAS-1696 Left in the Simulated Gastric Fluid of pH 2 ([4]; 5 h): 90.72%
% MAS-1696 Left in the Simulated Gastric Fluid of pH 2 ([4]; 8 h): 83.30%
% MAS-1696 Left in the Simulated Gastric Fluid of pH 2 ([4]; 12 h): 77% and 77.03%
% of MAS-1696 hydrolyzed in simulated gastric fluid ([4]; pH 2, 0 h): 0%
% of MAS-1696 hydrolyzed in simulated gastric fluid ([4]; pH 2, 2 h): 3.84%
% of MAS-1696 hydrolyzed in simulated gastric fluid ([4]; pH 2, 5 h): 9.28%
% of MAS-1696 hydrolyzed in simulated gastric fluid ([4]; pH 2, 8 h): 16.7%
% of MAS-1696 hydrolyzed in simulated gastric fluid ([4]; pH 2, 12 h): 22.97%
% MAS-1696 Left in Human Plasma ([5]; 0 min): 100%
% MAS-1696 Left in Human Plasma ([5]; 30 min): 0%
% MAS-1696 Left in Human Plasma ([5]; 60 min): 0%
melting point: 99 to 100 °C
SMILES: C=CCc1ccc(OC(=O)[C@@H](C)c2ccc3cc(OC)ccc3c2)c(OC)c1 [MAS-1696, (S)-4-Allyl-2-methoxyphenyl 2-(2-methoxynaphthalen-6-yl)propanoate]
Anti-inflammatory effect (edema, paw volume) [1]: anti-inflammatory potency comparable or even superior to S-naproxen
Anti-inflammatory effect (edema, paw volume) ([1]; listed as MAS1696): better anti-inflammatory effect when compared with S-naproxen
Ulcer score / gastric damage (stomach (gastric ulcers)): considerably less damage; also recorded: significantly less stomach damage
Hydrolysis in human plasma (in words) ([5]; 80% human plasma, 0, 30 and 60 min): completely hydrolyzed within half an hour; also recorded: readily hydrolyzed
